Measured values: publication PMC4624771, “Oriented Cell Division in the C. elegans Embryo Is Coordinated by G-Protein Signaling Dependent on the Adhesion GPCR LAT-1” (PLoS Genetics, 2015)

How the values were obtained:
[1] = system: lat-1 mutant nematodes expressing lat-1 with a lat-2 GPS; test: Peptide-mediated rescue of lethality in lat-1 mutants expressing lat-1 with a lat-2 GPS; type: in vivo, C. elegans; details: mothers and subsequently offspring soaked in 0.1 mM peptide, n ≥ 350
Experimental: Fig 4 The agonistic sequence of LAT-1 triggers receptor function in vivo. (A) Domain architecture of LAT-1 with an exchange of the GPS for the LAT-2 GPS. (B) Peptide-mediated rescue of lethality in lat-1 mutant nematodes expressing lat-1 with a lat-2 GPS. Mothers and subsequently offspring were soaked in 0.1 mM of peptide and individuals reaching adulthood were scored (n ≥ 350). […] Negative controls: mutated peptide CMP12 and a peptide derived from rat LPHN1 (RP13). Data are shown as means ± SD, **p<0.01; ***p<0.001. (C) Transgenically expressed lat-1 ^T530A/F532A::gfp exclusively rescues fertility defects of lat-1 mutants. Nematodes expressing lat-1 ^T530A/F532A::gfp in a lat-1 mutant background display lethality but no fertility defects compared to a lat-1::gfp transgenic control. (D) Expression and protein localization of lat-1::gfp (top) is indistinguishable from lat-1 ^T530A/F532A::gfp (bottom). Arrows indicate expression.
All compounds were obtained from Sigma Aldrich. Forskolin was dissolved in DMSO to 10 mM, 3-isobutyl-1-methylxanthine (IBMX) in Dent´s buffer to 10 mM, 8-bromoadenosine 3′,5′-cyclic monophosphate (8-Br-cAMP) in 1 N ammonium hydroxide to 250 mM and 2',5'-dideoxyadenosine (ddA) was diluted in DMSO to 100 mM prior to final dilution in Dent´s buffer. Peptides were synthesized (see Supporting Experimental Procedures) and dissolved in DMSO to 100 mM prior to final dilution in M9. Worms were incubated in 80 μM forskolin, 10 mM IBMX, 0.25 mM 8-Br-cAMP, 1 mM ddA or 0.1 mM peptide solution, respectively, containing E. coli OP50.
The lethality rescue assay was conducted as previously described. Fifty L4 hermaphrodites were transferred into wells of a 72-well flat-bottom Terasaki plates (Greiner Bio-One) containing OP50 and allowed to lay eggs for 24 hours at 22°C. Five to ten eggs were transferred into fresh wells with corresponding solutions and incubated at 22°C. The number of dead/surviving embryos was scored 24 hours later, the number of adult animals 48 hours later on an inverted microscope. Data were examined with an unpaired two-tailed t test for each genotype and condition.

LAT-1 = test: Peptide-stimulated cAMP accumulation assay, lat-1-transfected COS-7 cells; type: cell-based, C. elegans; details: 1 mM peptide; for agonistic activity at LAT-1 in vitro (cAMP levels), in words: lat-1-transfected COS-7 cells, cAMP accumulation assay
Text: Fig 3 An agonistic sequence C-terminal of the GPS cleavage site activates LAT-1 in vitro. (A) Evolutionary conservation of the putative agonistic region C-terminal of the GPCR proteolytic site (GPS) cleavage site in different latrophilin homologs. The GPS is part of the GPCR-autoproteolysis inducing (GAIN) domain, a characteristic feature of most aGPCRs which is located N-terminal of the first transmembrane domain (TM1). Sequences were retrieved from NCBI/GenBank and aligned utilizing Jalview 2 [36]. (B, F) Peptide-stimulated cAMP response of LAT-1 (B) and rat LPHN1 (F). COS-7 cells transfected with 0.2 μg empty control vector (pcDps) or plasmid encoding the latrophilin homolog, respectively, were stimulated with 1 mM peptide and cAMP levels were measured by cAMP accumulation assay. A mutated peptide served as negative control (CMP12/RMP13). […] Basal cAMP levels (empty vector, no peptide) are 5.3 ± 1.3 nM. Data are given as means ± SD of five independent experiments, each performed in triplicate. * p < 0.05; ** p < 0.01. (C) LPHN1 is expressed in COS-7 cells. Cells were transfected with 500 ng/well of empty vector (pcDps) or plasmid encoding either rat LPHN1, human P2Y12, or human V2R. […] Expression of the human vasopressin type 2 receptor V2R is shown as a comparison. The non-specific OD value (empty vector) was 0.06 ± 0.03 (set 0%) and the OD value of P2Y12 was 1.28 ± 0.12 (set 100%). Data are given as means ± SD of at least three independent experiments. *** p < 0.001. […] To analyze functional Gi coupling, the chimeric Gαqi4 protein was applied to reroute a potential Gi-protein pathway to the […]. For each assay, 1.5 μg/well of plasmid encoding LPHN1 was transfected (for Gi-protein coupling, co-transfection with 100 ng of chimeric Gαqi4 protein was performed). No activation of any of the signaling pathway was observed. Basal IP levels are: 220 ± 34 CPM/well (empty vector); 234 ± 39 CPM/well (empty vector + Gαqi4). Data are given as means ± SD of three independent experiments, each performed in triplicate. n.s. not significant. (E) LPHN1 couples to Gαs. COS-7 cells were transfected with increasing amounts of empty control vector (pcDps) or plasmid encoding either rat LPHN1, human V2R or human P2Y12, and cAMP levels were measured after 48 hours. cAMP concentrations are shown as fold change over empty control vector, basal cAMP levels: 6.2 ± 2.3 nM (200 ng); 6.1 ± 2.5 nM (300 ng); 5.1 ± 2.6 nM (400 ng); 6.1 ± 4.5 nM (500 ng). The Gs-protein coupling V2R served as positive and the predominantly Gi-protein coupling P2Y12 as negative control. Data are given as means ± SD of three independent experiments, each performed in triplicate. *** p < 0.001.
For functional assays, COS-7 cells were transiently transfected. To determine total as well as cell surface expression of receptors carrying N-terminal HA and C-terminal FLAG tags, indirect cellular enzyme-linked immunosorbent assays (ELISA) were employed. cAMP concentrations were measured using the ALPHAScreen cAMP assay kit (PerkinElmer Life Sciences) according to the manufacturer's protocol. IP formation was determined as previously described. Assay data was analyzed with GraphPad Prism version 5.0 (GraphPad Software). Statistics were performed using a two-way ANOVA in combination with Bonferroni as post-hoc test. For details see Supporting Experimental Procedures.
COS-7 cells were grown in Dulbecco's Modified Eagle Medium (DMEM) supplemented with 10% fetal bovine serum, 100 U/ml penicillin and 100 μg/ml streptomycin at 37°C and 5% CO2 in a humidified atmosphere. […]

lat-1(ok1465) nematodes = test: Lethality rescue assay in lat-1 mutant nematodes; type: in vivo; details: L4 larvae and subsequently embryos incubated; forskolin 80 μM, IBMX 10 mM, 8-Br-cAMP 0.25 mM
Text: Fig 2 Division plane defects in lat-1 mutant embryos are rescued by elevation of intracellular cAMP via a Gs protein/adenylyl cyclase pathway. […] In wild-type embryos treated with the RNAi control vector L4440 ABal divides in an anterior-posterior direction (A) whereas in treated lat-1 mutants the division plane is almost perpendicular to MS (B). gsa-1 RNAi by feeding over two generations leads to a turning of the F2 ABal division plane in a direction similar to that in lat-1 mutants (C). F2 lat-1; gsa-1(RNAi) embryos show a similar ABal division plane to lat-1 mutants (D). (E) Cell division plane angles of ABal relative to MS after knockdown of gsa-1. […] The vector L4440 served as negative control. Data are shown as means ± SD. * p < 0.05; *** p < 0.001; n ≥ 11. (F) cAMP levels are reduced in lat-1 embryos compared to a control wild-type population. cAMP levels were measured after lysis (15 μg protein) by cAMP accumulation assay. Assays were performed in three independent experiments, data are given as means ± SD. ** p < 0.01. (G) Rescue of developmental lethality in lat-1 nematodes treated with compounds promoting cAMP accumulation: forskolin (80 μM), IBMX (10 mM) and 8-Br-cAMP (0.25 mM). Mothers and subsequently offspring of wild-type and lat-1 individuals were incubated and individuals reaching adulthood were scored (n = 410). As controls, nematodes were incubated in solvent without drug (mock). Data are shown as means ± SD. * p < 0.05; ** p < 0.01; *** p < 0.001. (H) Forskolin increases cAMP levels in C. elegans embryos and adults. lat-1 mutants and subsequently embryos were incubated with 80 μM forskolin. […] As controls, nematodes were treated with 0.8% DMSO lacking forskolin (mock). Basal cAMP levels of mock control are: 0.70 ± 0.14 nM (wild-type embryos); 0.37 ± 0.19 nM (lat-1 embryos); 1.9 ± 0.7 nM (wild-type adults); 2.3 ± 0.8 nM (lat-1 adults). Assays were performed in three independent experiments, data are given as means ± SD. * p < 0.05; ** p < 0.01; *** p < 0.001. (I-L) Relative positions of ABala, ABalp, and MS in an AB^4 embryo. Schematic representation (top) and DIC microscopy (bottom), scale bars = 10 μm. In wild-type embryos (I) and embryos incubated in 80 μM forskolin for 120 minutes (K) ABal divides in an anterior-posterior direction with only ABalp forming an interface with MS. In lat-1 mutants the division plane is skewed resulting in ABala and ABalp contacting MS (J). lat-1 embryos treated with 80 μM forskolin for 120 minutes display wild-type division and cell interfaces (L). (M) Arrangement of blastomeres in the 12-cell stage embryo. […] The right-hand side is two views of the mean positions of the blastomeres. The spheres are enlarged to convey an impression of the contacts. Forskolin turns the ABal spindle in the mutant in a more anterior direction. (N) Cell division plane angles of ABal relative to MS of untreated wild-type/lat-1 controls and wild-type/lat-1 embryos after incubation of mothers and subsequently embryos for 48 hours in 80 μM forskolin. Upon forskolin treatment, mutant embryos display a wild-type division angle. As controls, nematodes were treated with 0.8% DMSO lacking forskolin (mock). Data are shown as average angles ± SD, *** p < 0.001; n ≥ 12. (O) Forskolin reduces the contact length of ABala to MS. Ratio of relative contact lengths of ABala to MS and ABalp to MS cells lat-1 embryos untreated (control, n = 10) and after incubation of mothers and subsequently embryos for 48 hours in 80 μM forskolin (n = 11). […] Data were calculated from pixel analyses utilizing DIC images and are shown as means ± SD, ** p < 0.01.
All compounds were obtained from Sigma Aldrich. Forskolin was dissolved in DMSO to 10 mM, 3-isobutyl-1-methylxanthine (IBMX) in Dent´s buffer to 10 mM, 8-bromoadenosine 3′,5′-cyclic monophosphate (8-Br-cAMP) in 1 N ammonium hydroxide to 250 mM and 2',5'-dideoxyadenosine (ddA) was diluted in DMSO to 100 mM prior to final dilution in Dent´s buffer. […]

| Compound | rescue of lethality (individuals reaching adulthood) ([1]; means ± SD, untreated controls 26 ± 7%) [%] | rescue of tissue polarity phenotype / activity in vivo, in words [1] | agonistic activity at LAT-1 in vitro (cAMP levels), in words (LAT-1) | effect on embryonic lethality of lat-1 worms, in words (lat-1(ok1465) nematodes) | increase of cAMP concentration above basal levels (LAT-1; lat-1-transfected COS-7 cells (0.2 μg plasmid), ALPHAScreen cAMP assay, means of five independent experiments, each in triplicate) [fold] |
| --- | --- | --- | --- | --- | --- |
| CP13: peptide of 13 amino acids comprising the LAT-1 sequence C-terminal of the GPS cleavage site (THFAVLMDVRGHD) | 46 ± 12 | efficiently rescued | increased cAMP levels |  |  |
| CP10: peptide comprising the LAT-1 sequence C-terminal of the GPS cleavage site (THFAVLMDVR) |  | not display any activity in vivo | no agonistic activity in vitro |  |  |
| CMP12: CP12-derived peptide with positions +1 (T530) and +3 (F532) mutated to alanine (AHAAVLMDVRGH) |  | not display any activity in vivo | did not display any activity |  |  |
| CC(C)Cn1c(=O)n(C)c(=O)c2[nH]cnc21 [IBMX, 3-isobutyl-1-methylxanthine] |  |  |  | amelioration of embryonic lethality |  |
| CP9: peptide comprising the LAT-1 sequence C-terminal of the GPS cleavage site (THFAVLMDV) |  | not display any activity in vivo | no agonistic activity in vitro |  |  |
| CP12: peptide of 12 amino acids comprising the LAT-1 sequence C-terminal of the GPS cleavage site (THFAVLMDVRGH) |  | efficiently rescued | increased cAMP levels |  | 1.6 |
| Nc1ncnc2c1nc(Br)n2[C@@H]1O[C@@H]2COP(=O)(O)O[C@H]2[C@H]1O [8-Br-cAMP, 8-bromoadenosine 3′,5′-cyclic monophosphate] |  |  |  | amelioration of embryonic lethality |  |
| CP14: peptide comprising the LAT-1 sequence C-terminal of the GPS cleavage site (THFAVLMDVRGHDL) |  | not display any activity in vivo | no agonistic activity in vitro |  |  |
